Reference: article PMC10800876, “Evaluation of proline-rich antimicrobial peptides as potential lead structures for novel antimycotics against Cryptococcus neoformans” (Frontiers in Microbiology, 2024)
≈ marks a conversion by molar mass, not a printed value. Read-outs that look alike come from different tables or passages of the source. Non-standard residues stand in square brackets, D forms with d. Residues, ends and D or L forms follow the SMILES beside them. Ac6c = NC1(C(=O)O)CCCCC1; Orn = NCCC[C@H](N)C(=O)O

Columns and labels:
[1] = tested on: C. neoformans H99 (serotype A)
[2] = tested on: C. neoformans KN99α (serotype A, mating type MATα)
[3] = tested on: C. neoformans strains 1841, H99, and KN99α; test: Broth microdilution assay (MIC); format: cell-based, Cryptococcus neoformans
[4] = tested on: C. neoformans 1841 (serotype D); conditions: for MIC (mg/L) 1841 24 h / MIC (mg/L) 1841 48 h: 50% SAB in phosphate buffer
[5] = KN99α (serotype A, mating type MATα, 24 h)
[6] = KN99α (serotype A, mating type MATα, 48 h)
[7] = 1841 (serotype D, 24 h, pH 7.5)
[8] = 1841 (serotype D, 48 h, pH 7.5)
[9] = broth microdilution, 50% SAB in phosphate buffer, 30°C, read after 24 h, n = 6
[10] = broth microdilution, 50% SAB in phosphate buffer, 30°C, read after 48 h, n = 6
[11] = broth microdilution, 50% SAB in phosphate buffer pH 7.5, 5 × 10^4 CFU/mL, 30°C, read after 24 h, mean of six replicates (n = 6)
[12] = broth microdilution, 50% SAB in phosphate buffer pH 7.5, 5 × 10^4 CFU/mL, 30°C, read after 48 h, n = 6
[13] = broth microdilution, 30°C, read after 24 h, n = 6
[14] = broth microdilution, 30°C, read after 48 h, n = 6

Row | Compound | MIC (μmol/L) H99 24 h ([1]; H99 (serotype A, 24 h)) [µmol/L] | MIC (μmol/L) H99 48 h ([1]; H99 (serotype A, 48 h)) [µmol/L] | MIC (μmol/L) KN99α 24 h [2, 5] [µmol/L] | MIC (μmol/L) KN99α 48 h [2, 6] [µmol/L] | MIC [3] [µmol/L] | MIC (μmol/L) 1841 24 h [4, 7] [µmol/L] | MIC (μmol/L) 1841 48 h [4, 8] [µmol/L] | MIC ([3]; strains 1841, H99, and KN99α, 24 h) [µmol/L] | MIC (mg/L) KN99α 24 h [2, 5] [mg/L] | MIC (μmol/L) H99 24 h [1, 9] [µmol/L] | MIC (μmol/L) H99 48 h [1, 10] [µmol/L] | MIC (μmol/L) KN99α 24 h [2, 9] [µmol/L] | MIC (μmol/L) KN99α 48 h [2, 10] [µmol/L] | MIC (μmol/L) 1841 24 h [4, 11] [µmol/L] | MIC (μmol/L) 1841 48 h [4, 12] [µmol/L] | MIC (mg/L) 1841 24 h [4, 13] [mg/L] | MIC (mg/L) 1841 48 h [4, 14] [mg/L] | MIC (mg/L) H99 48 h ([1]; H99 (serotype A, 48 h)) [mg/L]
1 | CC[C@H](C)[C@H](NC(=O)[C@H](CCCCN)NC(=O)[C@H](CCC(=O)O)NC(=O)CNC(=O)CNC(=O)[C@H](CCCCN)NC(=O)[C@H](CCCNC(=N)N)NC(=O)[C@H](CC(C)C)NC(=O)[C@H](CC(C)C)NC(=O)CN)C(=O)NCC(=O)N[C@@H](CCC(=O)O)C(=O)N[C@@H](CCCCN)C(=O)N[C@@H](CC(C)C)C(=O)N[C@@H](CCCCN)C(=O)N[C@@H](CCCCN)C(=O)N[C@H](C(=O)NCC(=O)N[C@@H](CCC(N)=O)C(=O)N[C@@H](CCCCN)C(=O)N[C@H](C(=O)N[C@@H](CCCCN)C(=O)N[C@@H](CC(N)=O)C(=O)N[C@@H](Cc1ccccc1)C(=O)N[C@@H](Cc1ccccc1)C(=O)N[C@@H](CCC(N)=O)C(=O)N[C@@H](CCCCN)C(=O)N[C@@H](CC(C)C)C(=O)N[C@H](C(=O)N1CCC[C@H]1C(=O)N[C@@H](CCC(N)=O)C(=O)N1CCC[C@H]1C(=O)N[C@@H](CCC(=O)O)C(=O)N[C@@H](CCC(N)=O)C(=O)O)C(C)C)[C@@H](C)CC)[C@@H](C)CC [CRAMP, reference compound] (H-GLLRKGGEKIGEKLKKIGQKIKNFFQKLVPQPEQ-OH) | 2.1 (≈ 8.15 µg/mL) | 2.1 (≈ 8.15 µg/mL) | 2.1 (≈ 8.15 µg/mL) | 2.1 (≈ 8.15 µg/mL) | 2.1 (≈ 8.15 µg/mL) | 2.1 (≈ 8.15 µg/mL) | 2.1 (≈ 8.15 µg/mL) |  |  |  |  |  |  |  |  |  |  | 
2 | CC[C@H](C)[C@H](NC(=O)[C@@H]1CCCN1C(=O)[C@H](CCCNC(=N)N)NC(=O)[C@@H]1CCCN1C(=O)[C@H](Cc1c[nH]cn1)NC(=O)[C@H](CO)NC(=O)[C@@H](NC(=O)[C@@H]1CCCN1C(=O)[C@H](CCCNC(=N)N)NC(=O)[C@@H]1CCCN1C(=O)[C@H](CO)NC(=O)[C@H](Cc1ccc(O)cc1)NC(=O)[C@@H]1CCCN1C(=O)[C@H](CCCNC(=N)N)NC(=O)[C@@H]1CCCN1C(=O)[C@H](CCCCN)NC(=O)CN)[C@@H](C)O)C(=O)N[C@@H](CCCNC(=N)N)C(=O)N[C@H](C(=O)O)C(C)C [Drosocin, reference compound] (H-GKPRPYSPRPTSHPRPIRV-OH) | 58 (≈ 128 µg/mL) | >58 | >58 | >58 |  | 29 (≈ 63.8 µg/mL) | 58 (≈ 128 µg/mL) | > 58 |  |  |  |  |  |  |  |  |  | 
3 | CC[C@H](C)[C@H](NC(=O)CNC(=O)[C@H](CCC(=O)O)NC(=O)[C@H](CCCCN)NC(=O)[C@H](CC(C)C)NC(=O)[C@H](CCCCN)NC(=O)[C@H](CCCCN)NC(=O)[C@@H](NC(=O)CNC(=O)[C@H](CCC(N)=O)NC(=O)[C@H](CCCCN)NC(=O)[C@@H](NC(=O)[C@H](CCCCN)NC(=O)[C@H](CC(N)=O)NC(=O)[C@H](Cc1ccccc1)NC(=O)[C@H](Cc1ccccc1)NC(=O)[C@H](CCC(N)=O)NC(=O)[C@H](CCCCN)NC(=O)[C@H](CC(C)C)NC(=O)[C@@H](NC(=O)[C@@H]1CCCN1C(=O)[C@H](CCC(N)=O)NC(=O)[C@@H]1CCCN1C(=O)[C@H](CCC(=O)O)NC(=O)[C@@H](N)CCC(N)=O)C(C)C)[C@@H](C)CC)[C@@H](C)CC)C(=O)N[C@@H](CCCCN)C(=O)N[C@@H](CCC(=O)O)C(=O)NCC(=O)NCC(=O)N[C@@H](CCCCN)C(=O)N[C@@H](CCCNC(=N)N)C(=O)N[C@@H](CC(C)C)C(=O)N[C@@H](CC(C)C)C(=O)NCC(=O)O [CRAMP rev] (H-QEPQPVLKQFFNKIKQGIKKLKEGIKEGGKRLLG-OH) | 1.0 (≈ 3.88 µg/mL) | 2.1 (≈ 8.15 µg/mL) | 1.0 to 2.1 | 2.1 (≈ 8.15 µg/mL) |  | 1.0 (≈ 3.88 µg/mL) | 2.1 (≈ 8.15 µg/mL) |  | 4 to 8 |  |  |  |  |  |  |  |  | 
4 | gu-OPNRYIRPRLPPHPNRPV-NH2 [Api88 scr] |  |  |  |  |  |  |  |  |  | 28 | 56 | 28 | 56 | 7.0 | 14 to 28 | 16 | 32 to 64 | 
5 | CC(C)C[C@H](NC(=O)[C@@H]1CCCN1C(=O)[C@H](CCCNC(=N)N)NC(=O)[C@@H]1CCCN1C(=O)[C@H](CCCNC(=N)N)NC(=O)[C@@H]1CCCN1C(=O)[C@@H]1CCCN1C(=O)[C@H](CCCNC(=N)N)NC(=O)[C@@H]1CCCN1C(=O)[C@@H](NC(=O)[C@@H](N)CCCNC(=N)N)C(C)C)C(=O)N[C@@H](Cc1ccc(O)cc1)C(=O)N1CCC[C@H]1C(=O)N[C@@H](CCCNC(=N)N)C(=O)N1CCC[C@H]1C(=O)N[C@@H](CCCCN)C(=O)N[C@@H](CC(=O)O)C(=O)N1CCC[C@H]1C(=O)N[C@@H](CCCNC(=N)N)C(=O)NC1(C(N)=O)CCCCC1 [Chex1Arg20 rev] (H-RVPRPPRPRPLYPRPKDPR[Ac6c]-NH2; N-terminus assumed) | 3.2 (≈ 7.92 µg/mL) | 3.2 to 6.5 | 3.2 (≈ 7.92 µg/mL) | 6.5 (≈ 16.1 µg/mL) |  | 3.2 (≈ 7.92 µg/mL) | 3.2 (≈ 7.92 µg/mL) |  |  |  |  |  |  |  |  |  |  | 8 to 16
6 | CC[C@H](C)[C@H](NC(=O)[C@H](CCCN)NC(=O)[C@H](CCCNC(=N)N)NC(=O)[C@@H]1CCCN1C(=O)[C@@H]1CCCN1C(=O)[C@H](CCCNC(=N)N)NC(=O)[C@@H]1CCCN1C(=O)[C@H](CCCNC(=N)N)NC(=O)[C@@H]1CCCN1C(=O)[C@H](CC(C)C)NC(=O)[C@H](Cc1ccc(O)cc1)NC(=O)[C@@H]1CCCN1C(=O)[C@@H]1CCCN1C(=O)[C@H](CCCCN)NC(=O)[C@H](CC(=O)O)NC(=O)[C@@H](N)C(C)C)C(=O)N[C@@H](Cc1ccc(O)cc1)C(=O)N[C@@H](CC(N)=O)C(=O)N[C@@H](CCCN)C(N)=O [Onc72] (H-VDKPPYLPRPRPPR[Orn]IYN[Orn]-NH2; N-terminus and C-terminus assumed) | 14 (≈ 32.3 µg/mL) | 28 to 56 | 14 to 28 | 56 (≈ 129 µg/mL) |  | 28 (≈ 64.6 µg/mL) | 56 (≈ 129 µg/mL) |  | 32 to 64 |  |  |  |  |  |  | 64 (≈ 27.8 µM) | 128 (≈ 55.5 µM) | 64 to 128
7 | gu-LRPHPPRPRPIYVPRNNO-NH2 [Api88 rev] |  |  |  |  |  |  |  |  |  | 7.0 | 14 | 7.0 | 14 | 7.0 | 7.0 |  |  | 
